According to US10041905B2, “Electrochemically active agents for pH modulation in biological buffers” (Robert Bosch GmbH, priority 2015, dated 2018):

Columns and labels:
[1] = Electrochemical generation of H+ or OH- ions at indium tin oxide electrode surfaces (electro-oxidation / electro-reduction, cyclic voltammetry); type: physicochemical
Text: Electrode material used: The electrode material was indium tin oxide. This is a semiconducting electrode surface with very large potential window in an aqueous solution.
Oxidation of ascorbic acid at the electrode surfaces produced H^+ ions and changed the electrode surface pH to a more acidic state: AH2→A+2H^++2e^−, where AH2 is ascorbic acid ([…]) (as shown in FIG. 5). The electrode potential at which it oxidizes was less than 0.5V for Indium tin oxide material vs Ag/AgCl reference electrode (as shown in FIG. 7). This potential was less than the voltages needed for the oxygen evolution reaction in aqueous solution. The ascorbic acid also acted as a sacrificial species to prevent electrochemical degradation of the surface chemistry.
Reduction of benzoquinone (C6H4O2) into Hydroquinone (C6H6O2) can produce OH^− ions at −0.1V: BQ+2e^−+2H2O →HQ+2OH^− This reduction reaction increased the pH at the electrode interface.

[2] = target: T1, Green Fluorescent Protein (GFP) (Aequorea victoria, UniProt P42212); conditions: literature (Loomis et al.; U.S. Pat. No. 6,753,312); cited from earlier work
[3] = target: T1, Green Fluorescent Protein (GFP); experiment: Fluorescence intensity of GFP after incubation with benzoquinones (protein stability); type: biochemical; conditions: 0.5 mM benzoquinone, phosphate buffered saline, 30 min
Experimental: Para-benzoquinones and ortho-benzoquinones (compounds 2, 4, 6, and 9 in FIG. 31) are susceptible to nucleophilic attack at the double bond of the ring (positions 2, 3, 5 and 6 in structure 2 of FIG. 31, positions 3, 4, 5 and 6 in structure 4 of FIG. 31, and positions 2 and 3 in structure 6 of FIG. 31). Introducing substituents at some or all of those positions can mitigate the problem of nucleophilic attack. […] Fluorescence intensity of Green Fluorescent Protein (GFP) was measured after incubation with three different benzoquinones in phosphate buffered saline for 30 min (concentration of benzoquinones was 0.5 mM). The difference in fluorescence intensity indicates the varied effect that the different substitutions in benzoquinones have on the stability of GFP. Fluorescence intensity of GFP is indicative of its structural integrity. Losses in fluorescence intensity usually indicate loss of its tertiary structure (protein denaturation) (Yin D. X., Zhu L., Schimke R. T. Anal. Biochem. 1996, 235:195-201).

O=C1O[C@H]([C@@H](O)CO)C(O)=C1O [ascorbic acid]
potential of current increase indicating start of oxidation ([1]; cyclic voltammetry, ITO electrodes): around 0.25 V
electrode potential at which it oxidizes ([1]; indium tin oxide vs Ag/AgCl reference electrode): less than 0.5 V

O=C1C=CC(=O)C=C1 [unsubstituted benzoquinone, 1,4-benzoquinone]
potential of reduction producing OH- ions ([1]; reduction of benzoquinone into hydroquinone): −0.1 V
Michael addition reaction with amino groups of proteins [2]: undergoes Michael addition reaction
loss in GFP fluorescence intensity after incubation [3]: 25%
